This is an account of results in patent US10696639B2, “Heterocyclic compounds as HIV protease inhibitors” (Merck Sharp & Dohme Corp., priority 2016, dated 2020).

This test has as its target T1, wild-type HIV-1 protease (Human immunodeficiency virus type 1 group M subtype B, UniProt P04585).
T1 construct: Escherichia coli expressed wild-type HIV-1 protease protein; made in house; host or cells: Escherichia coli
Kind of test: Assay for Inhibition of Microbial Expressed HIV Protease. Type of test: biochemical. The conditions noted are these: E. coli expressed wild-type HIV-1 protease, peptide substrate cleavage, LC-MS readout; mean of at least two independent experiments; read-out: HIV Pr Enzyme HIV1 PR IC50. Here is the method: Assay for Inhibition of Microbial Expressed HIV Protease
Inhibition of Escherichia coli expressed wild-type HIV-1 protease protein was carried out with a peptide substrate [Val-Ser-Gln-Asn-(βnaphtyl)Ala-Pro-Ile-Val]. The inhibitor compound was preincubated with HIV-1 protease enzyme in assay buffer (50 mM sodium acetate, pH 5.5, 100 mM NaCl, and 0.1% BSA) for 30 minutes at room temperature. Peptide substrate was added to […] in a total volume of 20 μL containing 20 pM HIV-1 protease (final) after which the reaction was incubated for 1 hour at 30° C. The reaction was quenched by the addition of formic acid and HIV protease inhibitor indinavir to 0.012% and 150 nM final concentrations, respectively. Product formation was determined after separation of product and substrate on a ZORBAX Eclipse XDB-C18 column (Aligent Technologies, Santa Clara, Calif., USA) connected to an API 4000™ mass spectrometer (AB Sciex, Pte. Ltd., Concord Ontario, Canada) with multiple reaction monitoring (transitions were 644.5/428.9 and 615.4/422.2 (M1/M3) for product and indinavir respectively). The extent of inhibition of the reaction was determined from the peak area of the products. Analysis of the products, independently synthesized, provided quantitation standards and confirmation of the product composition.
Turning to `N#Cc1cccc(C[C@H](N)C(=O)NCCCCN2C(=N)NC(c3ccccc3)(c3ccccc3)C2=O)c1` [Example 24, 3-cyano-N-[4-(2-imino-5-oxo-4,4-diphenylimidazolidin-1-yl)butyl]-L-phenylalaninamide], the IC50 was 22 nM. With `COC(=O)N[C@@H](Cc1ccc(F)cc1)C(=O)NCCCCN1C(=N)NC(c2ccccc2)(c2ccccc2)C1=O` [Example 25, 4-fluoro-N-[4-(2-imino-5-oxo-4,4-diphenylimidazolidin-1-yl)butyl]-N-alpha-(methoxycarbonyl)-L-phenylalaninamide], the IC50 worked out at 17 nM. In the case of `CC(C)OC(=O)N[C@@H](Cc1ccccc1)C(=O)NCCCCN1C(=N)NC(c2ccccc2)(c2ccccc2)C1=O` [Example 26, N-[4-(2-imino-5-oxo-4,4-diphenylimidazolidin-1-yl)butyl]-N-alpha-[(1-methylethoxy)carbonyl]-L-phenylalaninamide], the IC50 was 27 nM. The figure for `COC(=O)N[C@@H](Cc1ccc(F)cc1)C(=O)N[C@@H](C)CCCN1C(=N)N[C@](CC(C)C)(c2ccccc2)C1=O` [Example 27, 4-fluoro-N-{(1S)-4-[(4R)-2-imino-4-(2-methylpropyl)-5-oxo-4-phenylimidazolidin-1-yl]-1-methylbutyl}-N-alpha-(methoxycarbonyl)-L-phenylalaninamide] is 27 nM. Consider `COC(=O)N[C@@H](Cc1ccccc1)C(=O)N[C@@H](C)CCCN1C(=N)N[C@](CC(C)C)(c2ccccc2)C1=O` [Example 28, N-{(1S)-4-[(4R)-2-imino-4-(2-methylpropyl)-5-oxo-4-phenylimidazolidin-1-yl]-1-methylbutyl}-N-alpha-(methoxycarbonyl)-L-phenylalaninamide], for which the IC50 stood at 9 nM.

Regarding `COC(=O)N[C@@H](Cc1ccccc1)C(=O)NC(CCCN1C(=N)N[C@](CC(C)C)(c2ccccc2)C1=O)CC1CC1` (stereo partly drawn) [Example 29, N-{1-(cyclopropylmethyl)-4-[(4R)-2-imino-4-(2-methylpropyl)-5-oxo-4-phenylimidazolidin-1-yl]butyl}-N-alpha-(methoxycarbonyl)-L-phenylalaninamide], the IC50 was determined as 33 nM. The figure for `COC(=O)N[C@@H](Cc1cccc(Cl)c1)C(=O)NC(CCCN1C(=N)N[C@](CC(C)C)(c2ccccc2)C1=O)CC1CC1` (stereo partly drawn) [Example 30, 3-chloro-N-{1-(cyclopropylmethyl)-4-[(4R)-2-imino-4-(2-methylpropyl)-5-oxo-4-phenylimidazolidin-1-yl]butyl}-N-alpha-(methoxycarbonyl)-L-phenylalaninamide] is 97 nM; for `COC(=O)N[C@@H](Cc1ccccc1Cl)C(=O)NC(CCCN1C(=N)N[C@](CC(C)C)(c2ccccc2)C1=O)CC1CC1` (stereo partly drawn) [Example 31, 2-chloro-N-{1-(cyclopropylmethyl)-4-[(4R)-2-imino-4-(2-methylpropyl)-5-oxo-4-phenylimidazolidin-1-yl]butyl}-N-alpha-(methoxycarbonyl)-L-phenylalaninamide_] it is 80 nM; for `COC(=O)N[C@@H](Cc1cccc(Cl)c1)C(=O)N[C@H](CCCN1C(=N)N[C@](CC(C)C)(c2ccccc2)C1=O)C1CC1` [Example 32, 3-chloro-N-{(1R)-1-cyclopropyl-4-[(4R)-2-imino-4-(2-methylpropyl)-5-oxo-4-phenylimidazolidin-1-yl]butyl}-N-alpha-(methoxycarbonyl)-L-phenylalaninamide] it is 43 nM.

As to `COC(=O)N[C@@H](Cc1ccccc1Cl)C(=O)N[C@H](CCCN1C(=N)N[C@](CC(C)C)(c2ccccc2)C1=O)C1CC1` [Example 33, 2-chloro-N-{(1R)-1-cyclopropyl-4-[(4R)-2-imino-4-(2-methylpropyl)-5-oxo-4-phenylimidazolidin-1-yl]butyl}-N-alpha-(methoxycarbonyl)-L-phenylalaninamide], the IC50 turned out to be 23 nM. Next, `COC(=O)N[C@@H](Cc1ccccc1Cl)C(=O)N[C@@H](C)CCCN1C(=N)N[C@](CC(C)C)(c2ccccc2)C1=O` [Example 34, 2-chloro-N-{(1S)-4-[(4R)-2-imino-4-(2-methylpropyl)-5-oxo-4-phenylimidazolidin-1-yl]-1-methylbutyl}-N-alpha-(methoxycarbonyl)-L-phenylalaninamide]: 18 nM; `COC(=O)N[C@@H](Cc1cccc(Cl)c1)C(=O)N[C@@H](C)CCCN1C(=N)N[C@](CC(C)C)(c2ccccc2)C1=O` [Example 35, 3-chloro-N-{(1S)-4-[(4R)-2-imino-4-(2-methylpropyl)-5-oxo-4-phenylimidazolidin-1-yl]-1-methylbutyl}-N-alpha-(methoxycarbonyl)-L-phenylalaninamide]: 20 nM; `COC(=O)N[C@@H](Cc1ccccc1)C(=O)N[C@H](CCCN1C(=N)N[C@](CC(C)C)(c2ccccc2)C1=O)C1CC1` [Example 36, N-{(1R)-1-cyclopropyl-4-[(4R)-2-imino-4-(2-methylpropyl)-5-oxo-4-phenylimidazolidin-1-yl]butyl}-N-alpha-(methoxycarbonyl)-L-phenylalaninamide]: 9 nM.

As for `COC(=O)N[C@@H](Cc1ccc(Cl)cc1)C(=O)N[C@@H](C)CCCN1C(=N)N[C@](CC(C)C)(c2ccccc2)C1=O` [Example 37, 4-chloro-N-{(1S)-4-[(4R)-2-imino-4-(2-methylpropyl)-5-oxo-4-phenylimidazolidin-1-yl]-1-methylbutyl}-N-alpha-(methoxycarbonyl)-L-phenylalamnamide], the IC50 is 61 nM. The figure for `COC(=O)N[C@@H](Cc1cccc2ccccc12)C(=O)N[C@@H](C)CCCN1C(=N)N[C@](CC(C)C)(c2ccccc2)C1=O` [Example 38, methyl [(1S)-2-({(1S)-4-[(4R)-2-imino-4-(2-methylpropyl)-5-oxo-4-phenylimidazolidin-1-yl]-1-methylbutyl}amino)-1-(naphthalen-1-ylmethyl)-2-oxoethyl]carbamate] is 23 nM; for `COC(=O)N[C@@H](Cc1ccccc1OC)C(=O)N[C@@H](C)CCCN1C(=N)N[C@](CC(C)C)(c2ccccc2)C1=O` [Example 39, N-{(1S)-4-[(4R)-2-imino-4-(2-methylpropyl)-5-oxo-4-phenylimidazolidin-1-yl]-1-methylbutyl}-2-methoxy-N-alpha-(methoxycarbonyl)-L-phenylalaninamide] it is 3 nM. As to `COC(=O)N[C@@H](Cc1cccc(OC)c1)C(=O)N[C@@H](C)CCCN1C(=N)N[C@](CC(C)C)(c2ccccc2)C1=O` [Example 40, N-{(1S)-4-[(4R)-2-imino-4-(2-methylpropyl)-5-oxo-4-phenylimidazolidin-1-yl]-1-methylbutyl}-3-methoxy-N-alpha-(methoxycarbonyl)-L-phenylalaninamide], the IC50 was found to be 54 nM. The figure for `COC(=O)N[C@@H](CC1CCCCC1)C(=O)N[C@@H](C)CCCN1C(=N)N[C@](CC(C)C)(c2ccccc2)C1=O` [Example 41, methyl [(1S)-1-(cyclohexylmethyl)-2-({(1S)-4-[(4R)-2-imino-4-(2-methylpropyl)-5-oxo-4-phenylimidazolidin-1-yl]-1-methylbutyl}amino)-2-oxoethyl]carbamate] is 31 nM. Regarding `COC(=O)N[C@@H](Cc1ccc2ccccc2c1)C(=O)N[C@@H](C)CCCN1C(=N)N[C@](CC(C)C)(c2ccccc2)C1=O` [Example 42, methyl ((S)-1-(((S)-5-((R)-2-imino-4-isobutyl-5-oxo-4-phenylimidazolidin-1-yl)pentan-2-yl)amino)-3-(naphthalen-2-yl)-1-oxopropan-2-yl)carbamate], the IC50 is 46 nM. Take `COC(=O)N[C@@H](Cc1cccc(Cl)c1)C(=O)N[C@H](CCCN1C(=N)N[C@](CC(C)C)(c2ccccc2)C1=O)C(C)C` [Example 43, 3-chloro-N-[(1R)-4-[(4R)-2-imino-4-(2-methylpropyl)-5-oxo-4-phenylimidazolidin-1-yl]-1-(1-methylethyl)butyl]-N-alpha-(methoxycarbonyl)-L-phenylalaninamide]: the IC50 stood at 5 nM. For the compound `COC(=O)N[C@@H](Cc1ccccc1Cl)C(=O)N[C@H](CCCN1C(=N)N[C@](CC(C)C)(c2ccccc2)C1=O)C(C)C` [Example 44, 2-chloro-N-[(1R)-4-[(4R)-2-imino-4-(2-methylpropyl)-5-oxo-4-phenylimidazolidin-1-yl]-1-(1-methylethyl)butyl]-N-alpha-(methoxycarbonyl)-L-phenylalaninamide], the IC50 was 20 nM.

Turning to `COC(=O)N[C@@H](Cc1ccccc1)C(=O)N[C@H](CCCN1C(=N)N[C@](CC(C)C)(c2ccccc2)C1=O)C(C)C` [Example 45, N-[(1R)-4-[(4R)-2-imino-4-(2 methylpropyl)-5-oxo-4-phenylimidazolidin-1-yl]-1-(1 methylethyl)butyl]-N-alpha-(methoxycarbonyl)-L-phenylalaninamide], the IC50 is 27 nM. As for `COC(=O)N[C@@H](Cc1ccccc1)C(=O)N[C@H](CCCN1C(=N)N[C@](CC(C)C)(c2ccccc2)C1=O)C(F)(F)F` [Example 46, N-[(1R)-4-[(4R)-2-imino-4-(2-methylpropyl)-5-oxo-4-phenylimidazolidin-1-yl]-1-(trifluoromethyl)butyl]-N-alpha-(methoxycarbonyl)-L-phenylalaninamide], the IC50 was found to be 32 nM.

One may read the IC50 as the concentration at which inhibition is half-maximal.
